Where two headings read alike, the source gives them in different places.
Assays:
[1] = format: in vivo, Sprague-Dawley rats; details: 1 h, Letrozole + PMSG treated
[2] = preliminary tissue distribution of [18F]6 in female C57BL/6 mice; format: in vivo; details: data not shown
[3] = biodistribution of [18F]6 in immature female Sprague-Dawley rats; format: in vivo; details: 1 h

Compound: C[C@]12CC[C@@H]3c4ccc(O)cc4CC[C@@]3(CC[18F])[C@@H]1CC[C@@H]2O [[^18F]6, 8β-(2-[^18F]fluoroethyl)estradiol]
- percentage injected dose/gram, blood ([1]; DPN blocked (200 μg)): 0.17 ± 0.03 %ID/g
- percentage injected dose/gram, blood ([1]; E2 blocked (estradiol 20 μg)): 0.19 ± 0.02 %ID/g
- percentage injected dose/gram, blood ([1]; PPT blocked (200 μg)): 0.16 ± 0.03 %ID/g
- percentage injected dose/gram, blood ([1]; 18 μCi iv): 0.23 ± 0.07 %ID/g
- percentage injected dose/gram, bone ([1]; DPN blocked (200 μg)): 0.37 ± 0.07 %ID/g
- percentage injected dose/gram, bone ([1]; E2 blocked (estradiol 20 μg)): 0.33 ± 0.02 %ID/g
- percentage injected dose/gram, bone ([1]; PPT blocked (200 μg)): 0.34 ± 0.05 %ID/g
- percentage injected dose/gram, bone ([1]; 18 μCi iv): 0.40 ± 0.10 %ID/g
- percentage injected dose/gram, fat ([1]; DPN blocked (200 μg)): 0.53 ± 0.18 %ID/g
- percentage injected dose/gram, fat ([1]; E2 blocked (estradiol 20 μg)): 0.50 ± 0.11 %ID/g
- percentage injected dose/gram, fat ([1]; PPT blocked (200 μg)): 0.53 ± 0.16 %ID/g
- percentage injected dose/gram, fat ([1]; 18 μCi iv): 0.49 ± 0.12 %ID/g
- percentage injected dose/gram, heart ([1]; DPN blocked (200 μg)): 0.15 ± 0.02 %ID/g
- percentage injected dose/gram, heart ([1]; E2 blocked (estradiol 20 μg)): 0.14 ± 0.01 %ID/g
- percentage injected dose/gram, heart ([1]; PPT blocked (200 μg)): 0.14 ± 0.02 %ID/g
- percentage injected dose/gram, heart ([1]; 18 μCi iv): 0.17 ± 0.03 %ID/g
- percentage injected dose/gram, kidney ([1]; DPN blocked (200 μg)): 0.59 ± 0.11 %ID/g
- percentage injected dose/gram, kidney ([1]; E2 blocked (estradiol 20 μg)): 0.55 ± 0.08 %ID/g
- percentage injected dose/gram, kidney ([1]; PPT blocked (200 μg)): 0.51 ± 0.09 %ID/g
- percentage injected dose/gram, kidney ([1]; 18 μCi iv): 0.66 ± 0.12 %ID/g
- percentage injected dose/gram, liver ([1]; DPN blocked (200 μg)): 1.41 ± 0.22 %ID/g
- percentage injected dose/gram, liver ([1]; E2 blocked (estradiol 20 μg)): 1.51 ± 0.13 %ID/g
- percentage injected dose/gram, liver ([1]; PPT blocked (200 μg)): 1.40 ± 0.12 %ID/g
- percentage injected dose/gram, liver ([1]; 18 μCi iv): 1.67 ± 0.31 %ID/g
- percentage injected dose/gram, lung ([1]; DPN blocked (200 μg)): 0.36 ± 0.05 %ID/g
- percentage injected dose/gram, lung ([1]; E2 blocked (estradiol 20 μg)): 0.38 ± 0.04 %ID/g
- percentage injected dose/gram, lung ([1]; PPT blocked (200 μg)): 0.36 ± 0.06 %ID/g
- percentage injected dose/gram, lung ([1]; 18 μCi iv): 0.41 ± 0.02 %ID/g
- percentage injected dose/gram, muscle ([1]; DPN blocked (200 μg)): 0.13 ± 0.02 %ID/g
- percentage injected dose/gram, muscle ([1]; E2 blocked (estradiol 20 μg)): 0.12 ± 0.01 %ID/g
- percentage injected dose/gram, muscle ([1]; PPT blocked (200 μg)): 0.12 ± 0.02 %ID/g
- percentage injected dose/gram, muscle ([1]; 18 μCi iv): 0.14 ± 0.03 %ID/g
- percentage injected dose/gram, ovaries ([1]; DPN blocked (200 μg)): 0.32 ± 0.10 %ID/g
- percentage injected dose/gram, ovaries ([1]; E2 blocked (estradiol 20 μg)): 0.30 ± 0.06 %ID/g
- percentage injected dose/gram, ovaries ([1]; PPT blocked (200 μg)): 0.30 ± 0.05 %ID/g
- percentage injected dose/gram, ovaries ([1]; 18 μCi iv): 0.34 ± 0.04 %ID/g
- percentage injected dose/gram, spleen ([1]; DPN blocked (200 μg)): 0.12 ± 0.01 %ID/g
- percentage injected dose/gram, spleen ([1]; E2 blocked (estradiol 20 μg)): 0.12 ± 0.07 %ID/g
- percentage injected dose/gram, spleen ([1]; PPT blocked (200 μg)): 0.12 ± 0.02 %ID/g
- percentage injected dose/gram, spleen ([1]; 18 μCi iv): 0.13 ± 0.16 %ID/g
- percentage injected dose/gram, thymus ([1]; DPN blocked (200 μg)): 0.09 ± 0.02 %ID/g
- percentage injected dose/gram, thymus ([1]; E2 blocked (estradiol 20 μg)): 0.10 ± 0.01 %ID/g
- percentage injected dose/gram, thymus ([1]; PPT blocked (200 μg)): 0.08 ± 0.01 %ID/g
- percentage injected dose/gram, thymus ([1]; 18 μCi iv): 0.10 ± 0.01 %ID/g
- percentage injected dose/gram, uterus ([1]; DPN blocked (200 μg)): 0.22 ± 0.03 %ID/g
- percentage injected dose/gram, uterus ([1]; E2 blocked (estradiol 20 μg)): 0.20 ± 0.04 %ID/g
- percentage injected dose/gram, uterus ([1]; PPT blocked (200 μg)): 0.19 ± 0.02 %ID/g
- percentage injected dose/gram, uterus ([1]; 18 μCi iv): 0.26 ± 0.07 %ID/g
- tissue distribution (in words) [2]: elevated lung uptake
- percentage injected dose/gram, blood ([3]; DPN blocked (200 μg)): 0.22 ± 0.03 %ID/g
- percentage injected dose/gram, blood ([3]; E2 blocked (estradiol 20 μg)): 0.25 ± 0.07 %ID/g
- percentage injected dose/gram, blood ([3]; PPT blocked (200 μg)): 0.24 ± 0.06 %ID/g
- percentage injected dose/gram, blood ([3]; 13 μCi iv): 0.22 ± 0.05 %ID/g
- percentage injected dose/gram, bone ([3]; DPN blocked (200 μg)): 0.40 ± 0.04 %ID/g
- percentage injected dose/gram, bone ([3]; E2 blocked (estradiol 20 μg)): 0.37 ± 0.04 %ID/g
- percentage injected dose/gram, bone ([3]; PPT blocked (200 μg)): 0.43 ± 0.12 %ID/g
- percentage injected dose/gram, bone ([3]; 13 μCi iv): 0.36 ± 0.04 %ID/g
- percentage injected dose/gram, fat ([3]; DPN blocked (200 μg)): 0.58 ± 0.08 %ID/g
- percentage injected dose/gram, fat ([3]; E2 blocked (estradiol 20 μg)): 0.58 ± 0.10 %ID/g
- percentage injected dose/gram, fat ([3]; PPT blocked (200 μg)): 0.68 ± 0.19 %ID/g
- percentage injected dose/gram, fat ([3]; 13 μCi iv): 0.55 ± 0.09 %ID/g
- percentage injected dose/gram, heart ([3]; DPN blocked (200 μg)): 0.18 ± 0.03 %ID/g
- percentage injected dose/gram, heart ([3]; E2 blocked (estradiol 20 μg)): 0.21 ± 0.04 %ID/g
- percentage injected dose/gram, heart ([3]; PPT blocked (200 μg)): 0.19 ± 0.04 %ID/g
- percentage injected dose/gram, heart ([3]; 13 μCi iv): 0.18 ± 0.04 %ID/g
- percentage injected dose/gram, kidney ([3]; DPN blocked (200 μg)): 0.70 ± 0.10 %ID/g
- percentage injected dose/gram, kidney ([3]; E2 blocked (estradiol 20 μg)): 0.78 ± 0.15 %ID/g
- percentage injected dose/gram, kidney ([3]; PPT blocked (200 μg)): 0.78 ± 0.19 %ID/g
- percentage injected dose/gram, kidney ([3]; 13 μCi iv): 0.64 ± 0.14 %ID/g
- percentage injected dose/gram, liver ([3]; DPN blocked (200 μg)): 1.50 ± 0.20 %ID/g
- percentage injected dose/gram, liver ([3]; E2 blocked (estradiol 20 μg)): 1.63 ± 0.26 %ID/g
- percentage injected dose/gram, liver ([3]; PPT blocked (200 μg)): 1.54 ± 0.39 %ID/g
- percentage injected dose/gram, liver ([3]; 13 μCi iv): 1.52 ± 0.23 %ID/g
- percentage injected dose/gram, lung ([3]; DPN blocked (200 μg)): 0.33 ± 0.05 %ID/g
- percentage injected dose/gram, lung ([3]; E2 blocked (estradiol 20 μg)): 0.39 ± 0.06 %ID/g
- percentage injected dose/gram, lung ([3]; PPT blocked (200 μg)): 0.45 ± 0.12 %ID/g
- percentage injected dose/gram, lung ([3]; 13 μCi iv): 0.39 ± 0.09 %ID/g
- percentage injected dose/gram, muscle ([3]; DPN blocked (200 μg)): 0.15 ± 0.01 %ID/g
- percentage injected dose/gram, muscle ([3]; E2 blocked (estradiol 20 μg)): 0.19 ± 0.05 %ID/g
- percentage injected dose/gram, muscle ([3]; PPT blocked (200 μg)): 0.19 ± 0.05 %ID/g
- percentage injected dose/gram, muscle ([3]; 13 μCi iv): 0.15 ± 0.03 %ID/g
- percentage injected dose/gram, ovaries ([3]; DPN blocked (200 μg)): 0.33 ± 0.04 %ID/g
- percentage injected dose/gram, ovaries ([3]; E2 blocked (estradiol 20 μg)): 0.44 ± 0.15 %ID/g
- percentage injected dose/gram, ovaries ([3]; PPT blocked (200 μg)): 0.37 ± 0.13 %ID/g
- percentage injected dose/gram, ovaries ([3]; 13 μCi iv): 0.30 ± 0.11 %ID/g
- blocking of ovary uptake by estradiol, DPN or PPT (in words) ([3]; ovary): nor was it substantially blocked by any of the three agents
- percentage injected dose/gram, spleen ([3]; DPN blocked (200 μg)): 0.15 ± 0.02 %ID/g
- percentage injected dose/gram, spleen ([3]; E2 blocked (estradiol 20 μg)): 0.16 ± 0.03 %ID/g
- percentage injected dose/gram, spleen ([3]; PPT blocked (200 μg)): 0.16 ± 0.05 %ID/g
- percentage injected dose/gram, spleen ([3]; 13 μCi iv): 0.15 ± 0.03 %ID/g
- percentage injected dose/gram, thymus ([3]; DPN blocked (200 μg)): 0.12 ± 0.02 %ID/g
- percentage injected dose/gram, thymus ([3]; E2 blocked (estradiol 20 μg)): 0.13 ± 0.03 %ID/g
- percentage injected dose/gram, thymus ([3]; PPT blocked (200 μg)): 0.12 ± 0.02 %ID/g
- percentage injected dose/gram, thymus ([3]; 13 μCi iv): 0.12 ± 0.03 %ID/g
- percentage injected dose/gram, uterus ([3]; DPN blocked (200 μg)): 0.23 ± 0.05 %ID/g
- percentage injected dose/gram, uterus ([3]; E2 blocked (estradiol 20 μg)): 0.38 ± 0.25 %ID/g
- percentage injected dose/gram, uterus ([3]; PPT blocked (200 μg)): 0.35 ± 0.15 %ID/g
- percentage injected dose/gram, uterus ([3]; 13 μCi iv): 0.33 ± 0.14 %ID/g

Source: paper PMC3465515 (Nuclear medicine and biology, 2012)
